From PubChem BioAssay AID1259407 (Chemical Carcinogenesis Research Information System (CCRIS), 2018)
Activity calls are given as the source filed them. How the calls were made is not given here.

System: CCRIS mutagenicity, Ames/micronucleus/aberration tests
Test: CCRIS mutagenicity studies
[1] = Test System: AMES SALMONELLA TYPHIMURIUM, Strain/Indicator: TA98, Metabolic Activation: NONE, Method: PREINCUBATION
[2] = Test System: AMES SALMONELLA TYPHIMURIUM, Strain/Indicator: TA100, Metabolic Activation: NONE, Method: PREINCUBATION
[3] = Test System: AMES SALMONELLA TYPHIMURIUM, Strain/Indicator: TA98, Metabolic Activation: NONE, Method: STANDARD PLATE
[4] = Test System: AMES SALMONELLA TYPHIMURIUM, Strain/Indicator: TA100, Metabolic Activation: NONE, Method: STANDARD PLATE
[5] = Test System: AMES SALMONELLA TYPHIMURIUM, Strain/Indicator: TA1535, Metabolic Activation: NONE, Method: STANDARD PLATE
[6] = Test System: AMES SALMONELLA TYPHIMURIUM, Strain/Indicator: TA1537, Metabolic Activation: NONE, Method: STANDARD PLATE
[7] = Test System: AMES SALMONELLA TYPHIMURIUM, Strain/Indicator: TA100, Metabolic Activation: RAT, LIVER, S-9, AROCLOR 1254, Method: STANDARD PLATE

`O=C1CCCCCCCCCCCCCCO1` was tested, and the mutagenic call [1] was “inactive; negative”, the mutagenic call (Test System: AMES SALMONELLA TYPHIMURIUM, Strain/Indicator: TA98, Metabolic Activation: RAT LIVER S-9, PHENOBARBITAL AND BETA-NAPHTHOFLAVONE, Method: PREINCUBATION) was “inactive; negative” and the mutagenic call [2] was “inactive; negative”. For the same compound, the mutagenic call (Test System: AMES SALMONELLA TYPHIMURIUM, Strain/Indicator: TA100, Metabolic Activation: RAT LIVER S-9, PHENOBARBITAL AND BETA-NAPHTHOFLAVONE, Method: PREINCUBATION) was “inactive; negative”, the mutagenic call (Test System: AMES SALMONELLA TYPHIMURIUM, Strain/Indicator: TA102, Metabolic Activation: NONE, Method: PREINCUBATION) was “inactive; negative” and the mutagenic call (Test System: AMES SALMONELLA TYPHIMURIUM, Strain/Indicator: TA102, Metabolic Activation: RAT LIVER S-9, PHENOBARBITAL AND BETA-NAPHTHOFLAVONE, Method: PREINCUBATION) was “inactive; negative”. For the same compound, the mutagenic call (Test System: AMES SALMONELLA TYPHIMURIUM, Strain/Indicator: TA104, Metabolic Activation: NONE, Method: PREINCUBATION) was “inactive; negative”, the mutagenic call (Test System: AMES SALMONELLA TYPHIMURIUM, Strain/Indicator: TA104, Metabolic Activation: RAT LIVER S-9, PHENOBARBITAL AND BETA-NAPHTHOFLAVONE, Method: PREINCUBATION) was “inactive; negative” and the mutagenic call (Test System: AMES SALMONELLA TYPHIMURIUM, Strain/Indicator: TA1535, Metabolic Activation: NONE, Method: PREINCUBATION) was “inactive; negative”. The mutagenic call (Test System: AMES SALMONELLA TYPHIMURIUM, Strain/Indicator: TA1535, Metabolic Activation: RAT LIVER S-9, PHENOBARBITAL AND BETA-NAPHTHOFLAVONE, Method: PREINCUBATION) was “inactive; negative”, the mutagenic call (Test System: AMES SALMONELLA TYPHIMURIUM, Strain/Indicator: TA1537, Metabolic Activation: NONE, Method: PREINCUBATION) was “inactive; negative” and the mutagenic call (Test System: AMES SALMONELLA TYPHIMURIUM, Strain/Indicator: TA1537, Metabolic Activation: RAT LIVER S-9, PHENOBARBITAL AND BETA-NAPHTHOFLAVONE, Method: PREINCUBATION) was “inactive; negative”. The mutagenic call (Test System: E.COLI, Strain/Indicator: WP2UVRA/PKM101, Metabolic Activation: NONE, Method: PREINCUBATION) was “inactive; negative”, the mutagenic call (Test System: E.COLI, Strain/Indicator: WP2UVRA/PKM101, Metabolic Activation: RAT LIVER S-9, PHENOBARBITAL AND BETA-NAPHTHOFLAVONE, Method: PREINCUBATION) was “inactive; negative” and the mutagenic call (Test System: E.COLI, Strain/Indicator: WP2UVRA, Metabolic Activation: NONE, Method: PREINCUBATION) was “inactive; negative”. The mutagenic call (Test System: E.COLI, Strain/Indicator: WP2UVRA, Metabolic Activation: RAT LIVER S-9, PHENOBARBITAL AND BETA-NAPHTHOFLAVONE, Method: PREINCUBATION) was “inactive; negative”.
For `CO/N=C(\C(=O)N[C@@H]1C(=O)N2C(C(=O)[O-])=C(C[n+]3ccn4ncccc43)CS[C@H]12)c1nsc(N)n1`, the mutagenic call [3] was “inactive; negative”, the mutagenic call (Test System: AMES SALMONELLA TYPHIMURIUM, Strain/Indicator: TA98, Metabolic Activation: RAT, LIVER, S-9, SODIUM PHENOBARBITAL AND 5,6-BENZOFLAVONE, Method: STANDARD PLATE) was “inactive; negative” and the mutagenic call [4] was “inactive; negative”. The mutagenic call (Test System: AMES SALMONELLA TYPHIMURIUM, Strain/Indicator: TA100, Metabolic Activation: RAT, LIVER, S-9, SODIUM PHENOBARBITAL AND 5,6-BENZOFLAVONE, Method: STANDARD PLATE) was “inactive; negative”, the mutagenic call [5] was “inactive; negative” and the mutagenic call (Test System: AMES SALMONELLA TYPHIMURIUM, Strain/Indicator: TA1535, Metabolic Activation: RAT, LIVER, S-9, SODIUM PHENOBARBITAL AND 5,6-BENZOFLAVONE, Method: STANDARD PLATE) was “inactive; negative”. The mutagenic call [6] was “inactive; negative”, the mutagenic call (Test System: AMES SALMONELLA TYPHIMURIUM, Strain/Indicator: TA1537, Metabolic Activation: RAT, LIVER, S-9, SODIUM PHENOBARBITAL AND 5,6-BENZOFLAVONE, Method: STANDARD PLATE) was “inactive; negative” and the mutagenic call (Test System: E. COLI, Strain/Indicator: WP2 UVRA, Metabolic Activation: NONE, Method: STANDARD PLATE) was “inactive; negative”. For the same compound, the mutagenic call (Test System: E. COLI, Strain/Indicator: WP2 UVRA, Metabolic Activation: RAT, LIVER, S-9, SODIUM PHENOBARBITAL AND 5,6-BENZOFLAVONE, Method: STANDARD PLATE) was “inactive; negative”.
`C[C@@]12CC[C@@H]3[C@@](CC[C@H]4[C@@]3(C)CCC[C@@]4(C)C(=O)O)(CC1=O)C2` was tested, and the mutagenic call (Test System: AMES SALMONELLA TYPHIMURIUM, Strain/Indicator: TM677, Metabolic Activation: RAT, LIVER, S-9, AROCLOR 1254, Method: PREINCUBATION) was “inactive; negative”.
For `CC1=Nc2ccccc2C1(C)C`, the mutagenic call (Test System: AMES SALMONELLA TYPHIMURIUM, Strain/Indicator: TA98, Metabolic Activation: HAMSTER, LIVER, S-9, AROCLOR 1254, Method: STANDARD PLATE) was “inactive; negative”, the mutagenic call [3] was “inactive; negative” and the mutagenic call (Test System: AMES SALMONELLA TYPHIMURIUM, Strain/Indicator: TA98, Metabolic Activation: RAT, LIVER, S-9, AROCLOR 1254, Method: STANDARD PLATE) was “inactive; negative”. The mutagenic call (Test System: AMES SALMONELLA TYPHIMURIUM, Strain/Indicator: TA100, Metabolic Activation: HAMSTER, LIVER, S-9, AROCLOR 1254, Method: STANDARD PLATE) was “inactive; negative”, the mutagenic call [4] was “inactive; negative” and the mutagenic call [7] was “inactive; negative”. The mutagenic call (Test System: AMES SALMONELLA TYPHIMURIUM, Strain/Indicator: TA1535, Metabolic Activation: HAMSTER, LIVER, S-9, AROCLOR 1254, Method: STANDARD PLATE) was “inactive; negative”, the mutagenic call [5] was “inactive; negative” and the mutagenic call (Test System: AMES SALMONELLA TYPHIMURIUM, Strain/Indicator: TA1535, Metabolic Activation: RAT, LIVER, S-9, AROCLOR 1254, Method: STANDARD PLATE) was “inactive; negative”. For the same compound, the mutagenic call (Test System: AMES SALMONELLA TYPHIMURIUM, Strain/Indicator: TA1537, Metabolic Activation: HAMSTER, LIVER, S-9, AROCLOR 1254, Method: STANDARD PLATE) was “inactive; negative”, the mutagenic call [6] was “inactive; negative” and the mutagenic call (Test System: AMES SALMONELLA TYPHIMURIUM, Strain/Indicator: TA1537, Metabolic Activation: RAT, LIVER, S-9, AROCLOR 1254, Method: STANDARD PLATE) was “inactive; negative”. For the same compound, the mutagenic call (Test System: AMES SALMONELLA TYPHIMURIUM, Strain/Indicator: TA1538, Metabolic Activation: HAMSTER, LIVER, S-9, AROCLOR 1254, Method: STANDARD PLATE) was “inactive; negative”, the mutagenic call (Test System: AMES SALMONELLA TYPHIMURIUM, Strain/Indicator: TA1538, Metabolic Activation: NONE, Method: STANDARD PLATE) was “inactive; negative” and the mutagenic call (Test System: AMES SALMONELLA TYPHIMURIUM, Strain/Indicator: TA1538, Metabolic Activation: RAT, LIVER, S-9, AROCLOR 1254, Method: STANDARD PLATE) was “inactive; negative”. For the same compound, the mutagenic call (Test System: MOUSE LYMPHOMA, Strain/Indicator: L5178Y (TK+/TK-), Metabolic Activation: NONE, Method: SUSPENSION/PLATE) was “inactive; positive. reevaluation of results: negative” and the mutagenic call (Test System: MOUSE LYMPHOMA, Strain/Indicator: L5178Y (TK+/TK-), Metabolic Activation: RAT, LIVER, S-9, AROCLOR 1254, Method: SUSPENSION/PLATE) was “active; positive. reevaluation of results: inconclusive”.
`CCc1ccccc1N` was tested, and the mutagenic call [1] was “inactive; negative”, the mutagenic call (Test System: AMES SALMONELLA TYPHIMURIUM, Strain/Indicator: TA98, Metabolic Activation: S-9, Method: PREINCUBATION) was “inactive; negative” and the mutagenic call [2] was “inactive; negative”. The mutagenic call (Test System: AMES SALMONELLA TYPHIMURIUM, Strain/Indicator: TA100, Metabolic Activation: S-9, Method: PREINCUBATION) was “inactive; negative” and the mutagenic call (Test System: UDS RODENT HEPATOCYTES, Strain/Indicator: THY INCORP (NON-S-PHASE), Metabolic Activation: NONE, Method: AUTORADIOGRAPHY) was “inactive; negative”.
With `CNC(=O)Oc1cccc2c1OC(C)(C)C2=O` the mutagenic call (End Point: IN VIVO MICRONUCLEUS, Test System: BONE MARROW POLYCHROMATIC ERYTHROCYTES, Species: MOUSE, Strain/Sex: KM/MALE, FEMALE, Route: IP INJECTION) was “inactive; negative”.
In the case of `COc1ccc2oc([N+](=O)[O-])cc2c1N(CCCl)CCCl`, the mutagenic call (Test System: AMES SALMONELLA TYPHIMURIUM, Strain/Indicator: TA100(NR), Metabolic Activation: NONE, Method: STANDARD PLATE) is reported as “active; positive”, the mutagenic call (Test System: AMES SALMONELLA TYPHIMURIUM, Strain/Indicator: TA100(NR), Metabolic Activation: RAT, LIVER, S-9, AROCLOR 1254, Method: STANDARD PLATE) is reported as “active; positive” and the mutagenic call [4] is reported as “active; positive”. For the same compound, the mutagenic call [7] was “active; positive”.
In the case of `NC(CS)C(=O)O` (stereo not given), the mutagenic call (Test System: AMES SALMONELLA TYPHIMURIUM, Strain/Indicator: TA98, Metabolic Activation: RAT LIVER S-9, CHLOROPHENE, Method: STANDARD PLATE (COMPOUND HEATED AT 250 DEGREES CELSIUS FOR 20 MIN)) is reported as “inactive; negative”.
